According to ChEMBL document CHEMBL5728279, “Toll-like receptor 7 (TLR7) agonists having a pyridine or pyrazine moiety, conjugates thereof, and methods and uses therefor” (2021):

The molecules below were run against T1, Toll-like receptor 7 (Homo sapiens, UniProt Q9NYK1) (assay: HEK-Blue™ TLR7 cells were added to each well of a 384-well tissue-culture plate (15,000 cells per well) and incubated 16-18 h at 37° C., 5% CO2. Compounds (100 nl) were dispensed into wells containing the HEK-Blue™ TLR cells and the treated cells were incubated at 37° C., 5% CO2. After 18 h treatment ten microliters of freshly-prepared Quanti-Blue™ reagent (Invivogen) was added to each well, incubated for 30 min (37° C., 5% CO2) and SEAP levels measured using an Envision plate reader (OD=620 nm).).
T1 sequence (Q9NYK1 whole entry): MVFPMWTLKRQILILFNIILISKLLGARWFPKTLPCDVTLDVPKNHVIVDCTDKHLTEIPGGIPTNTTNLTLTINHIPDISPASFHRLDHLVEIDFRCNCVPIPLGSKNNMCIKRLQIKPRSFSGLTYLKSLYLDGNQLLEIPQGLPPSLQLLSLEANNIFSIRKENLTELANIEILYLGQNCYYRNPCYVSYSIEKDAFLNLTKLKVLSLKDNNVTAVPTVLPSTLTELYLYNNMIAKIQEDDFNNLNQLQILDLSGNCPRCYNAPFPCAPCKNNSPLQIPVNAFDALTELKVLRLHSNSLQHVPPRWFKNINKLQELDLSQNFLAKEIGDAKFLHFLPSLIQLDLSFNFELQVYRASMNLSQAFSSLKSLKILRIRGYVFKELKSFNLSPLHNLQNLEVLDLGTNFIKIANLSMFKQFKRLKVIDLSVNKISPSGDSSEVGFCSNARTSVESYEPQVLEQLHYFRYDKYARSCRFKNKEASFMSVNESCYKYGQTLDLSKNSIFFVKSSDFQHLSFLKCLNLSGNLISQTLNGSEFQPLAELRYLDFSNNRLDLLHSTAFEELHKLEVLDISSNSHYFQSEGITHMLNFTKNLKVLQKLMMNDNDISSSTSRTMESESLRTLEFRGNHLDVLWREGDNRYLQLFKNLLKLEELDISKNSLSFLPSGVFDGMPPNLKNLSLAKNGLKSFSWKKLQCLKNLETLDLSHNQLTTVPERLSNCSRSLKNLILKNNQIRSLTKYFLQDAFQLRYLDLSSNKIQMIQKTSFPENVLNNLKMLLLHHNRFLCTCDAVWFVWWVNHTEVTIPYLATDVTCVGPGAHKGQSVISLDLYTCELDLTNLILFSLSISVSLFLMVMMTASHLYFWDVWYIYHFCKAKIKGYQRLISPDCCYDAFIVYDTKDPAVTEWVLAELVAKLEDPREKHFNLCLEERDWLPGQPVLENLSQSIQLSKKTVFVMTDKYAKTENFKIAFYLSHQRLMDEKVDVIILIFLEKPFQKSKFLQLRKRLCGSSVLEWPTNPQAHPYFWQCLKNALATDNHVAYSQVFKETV

Compound	EC50
CCCCOc1nc(N)c2nc(O)n(Cc3ccc(CN4CCC(CN)CC4)nc3)c2n1	4.9 nM
CCCCOc1nc(N)c2nc(O)n(Cc3ccc(CNC4CCCC4)nc3)c2n1	2.9 nM
CCCCOc1nc(N)c2nc(O)n(Cc3ccc(CN4CCC(N)CC4)nc3)c2n1	3.1 nM
CCCCOc1nc(N)c2nc(O)n(Cc3ccc(CNCc4ccccc4)nc3)c2n1	110 nM
CCCCCCNCc1ccc(Cn2c(O)nc3c(N)nc(OCCCC)nc32)cn1	11 nM
CCCCOc1nc(N)c2nc(O)n(Cc3ccc(CNCc4ccccc4)cn3)c2n1	22 nM
